Here are results for four compounds from US12622912B2, “Application of pyrido[1,2-a]pyrimidinone analog” (GUANGZHOU JOYO PHARMATECH CO., LTD, priority 2021, dated 2026).

The structures appear in SMILES notation. pIC50: −log10 of the molar value. Where two headings read alike, the source gives them in different places.

For test [1], the system named is human breast cancer BT-474 subcutaneous xenograft tumor. Description: In vivo efficacy, BT-474 subcutaneous xenograft tumor model. More on the design: species or system BALB/c nude mice. Conditions: for Tumor volume (Day 20): Mean ± SEM; for T/C / TGI: day 20. The protocol: Experimental purpose: Study the in vivo efficacy of the test drug on human breast cancer BT-474 subcutaneous xenograft tumor BALB/c nude mouse model.
(1) Cell culture: human breast cancer BT-474 cells were monolayer cultured in vitro. The culture conditions were that 10% fetal bovine serum, 100 U/ml penicillin (purchased from Gibco) and 100 μg/ml chain Mycin (purchased from Gibco) were added to Hybri-Care medium, and cultured at 37° C. and 5% CO2. Routine digestion and passage were performed with trypsin-EDTA (purchased from Gibco, product number: 25200-072) twice a week. When the cell saturation was 80%-90%, the cells are harvested, counted and inoculated.
(2) Animals: BALB/c nude mice, female, 6 weeks old, weighing 16-18 grams. Provided by Shanghai Sippe-Bk Lab Animal Co., Ltd.
(3) Control article: • Both PF05212384 and Everolimus were purchased from Shanghai TOPSCIENCE Biochemical Technology Co., Ltd.
(4) Tumor inoculation: 0.2 ml (1×10^7) BT-474 cells (matrigel was added, volume 1:1) were subcutaneously inoculated on the right back of each mouse, and the mice were divided into groups and administered with drugs when the average tumor volume reached 122 mm^3. See Table 10 below for the experimental grouping and dosing regimen.

Test [2] deals with T47D PIK3CA-mutated breast cancer cell line. Description: CTG cell proliferation, T47D. Type of test: cell-based. The note with it: 72 hours, read-out: Absolute IC50. An excerpt:
(§1) (2) Reagents • 1) FBS (fetal bovine serum) (purchased from ExCell, product number: FND500); • 2) DMEM medium (purchased from Gibco, product number: C11995500BT); • 3) Insulin (purchased from Gibco, product number: EPX010-12003-901); • 4) RPMI1640 medium (purchased from Hyclone, product number: SH30809.01); • 5) MEM medium (purchased from Hyclone, product number: SH30024.01). (3) Test Article and Positive Control Article • Test article: compound I; • Positive control article: Cisplatin, Molecular weight: 300.05; Solvent: PBS (phosphate buffer saline); Storage condition: 2-8° C.; Supplier: Qilu Pharmaceutical. (4) The CTG Method was Used to Determine the Cell Proliferation IC50 of the Compound.
(§2) Step 1: Cells in exponential growth phase were harvested, and viable cells were counted with a Vi-Cell XR cytometer. The cell suspension was adjusted to an appropriate concentration with medium. 90 μL of cell suspension was added to each well of a 96-well cell culture plate, and the final cell concentration was 1500-6000 cells/well.
(§3) Step 2: The initial concentration of administration of compound I was 3 μM, and the initial concentration of administration of the control drug Cisplatin was 100 μM, and serially diluted 3-fold, a total of 9 concentration gradients and a DMSO control, the final concentration of DMSO in each well was 0.1%, placed in a 37° C., 5% CO2 incubator for 72 hours.
(§4) Step 3: After 72 hours of drug treatment, 50 μL (½ culture volume) CTG solution that was melted and equilibrated to room temperature was added to each well according to the CTG operation instruction. […] After 10 minutes, the fluorescence signal value was measured with an Envision2104 plate reader.
(§5) Cell survival rate was calculated using the formula: Vsample/Vvehicle control×100%. Where, Vsample was the reading of the drug treatment group, and Vvehicle control was the average value of the solvent control group. GraphPad Prism 5.0 software was used, and a S-type dosage-survival rate curve was drawn using a nonlinear regression model and IC50 value was calculated.

Test [3] concerns BT-474 PIK3CA-mutated breast cancer cell line. Description: CTG cell proliferation, BT-474. Type of test: cell-based, human. Conditions: BT-474, CTG, 72 hours; read-out: Absolute IC50.
Text: as §1, §2, §3, §4, §5

The test system of test [4] is ME-180 PIK3CA-mutated cervical cancer cell line. Description: CTG cell proliferation, ME-180. The class given is cell-based. The note with it: ME-180, CTG, 72 hours, read-out: Absolute IC50.
Text: (§6) (2) Reagents • 1) FBS (fetal bovine serum) (purchased from ExCell, product number: FND500); • 2) RPMI1640 medium (purchased from Hyclone, product number: SH30809.01); • 3) McCoy's 5A medium (purchased from Gibco, product number: 12330-031); • 4) MEM medium (purchased from Hyclone, product number: SH30024.01; • 5) MEM NEAA (purchased from Gibco, product number: 11140-050); • 6) Sodium pyruvate (purchased from Gibco). (3) Test Article and Positive Control Article • Test article: compound I; Positive Control Article: • 1) Alpelisib, molecular weight: 441.47; solvent: DMSO; storage condition after dissolution: −20° C.; supplier: Shanghai TOPSCIENCE Biochemical Technology Co., Ltd., CAS number: 1217486-61-7; • 2) Cisplatin, molecular weight: 300.05; solvent: PBS (phosphate buffer saline); storage condition: 2-8° C.; supplier: Qilu Pharmaceutical. (4) The CTG Method was Used to Determine the Cell Proliferation IC50 of the Compound
(§7) Step 1: Cells in exponential growth phase were harvested, and viable cells were counted with a Vi-Cell XR cytometer. The cell suspension was adjusted to an appropriate concentration with medium. 90 μL of cell suspension was added to each well of a 96-well cell culture plate, and the final cell concentration was 1500-6000 cells/well. […]
as §4, §5

The test system of test [5] is Ca Ski PIK3CA-mutated cervical cancer cell line. The test is described as follows: CTG cell proliferation, Ca Ski. Type of test: cell-based. Conditions: 72 hours, read-out: Absolute IC50.
Text: as §6, §7, §4, §5

The subject of test [6] is C-33A PIK3CA-mutated cervical cancer cell line. The test is described as follows: CTG cell proliferation, C-33A. The class given is cell-based. The note with it: 72 hours, read-out: Absolute IC50.
Text: as §6, §7, §4, §5

In test [7] the test system is J82 PIK3CA-mutated bladder cancer cell line. The test is described as follows: CTG cell proliferation, J82. The class given is cell-based. Conditions: 72 hours, read-out: Absolute IC50.
Text: (§8) (2) Reagents • 1) FBS (fetal bovine serum) (purchased from ExCell, product number: FND500); • 2) MEM medium (purchased from Hyclone, product number: SH30024.01; • 3) MEM NEAA (purchased from Gibco, product number: 11140-050); • 4) Sodium pyruvate (purchased from Gibco). […] (4) The CTG Method was Used to Determine the Cell Proliferation IC50 of the Compound
as §2
(§9) Step 3: After 72 hours of drug treatment, 50 μL (½ culture volume) CTG solution that was melted and equilibrated to room temperature was added to each well according to the CTG operation instruction. The solution was mixed well with a microplate shaker for 2 minutes, and placed at room temperature. After 10 minutes, the fluorescence signal value was measured with an Envision2104 plate reader.
(§10) Cell survival rate was calculated using the formula: Vsample/Vvehicle control×100%. Where, Vsample was the reading of the drug treatment group, and Vvehicle control was the average value of the solvent control group.

Test [8] relates to TCCSUP PIK3CA-mutated bladder cancer cell line. The test is described as follows: CTG cell proliferation, TCCSUP. The note with it: 72 hours, read-out: Absolute IC50. Type of test: cell-based.
Text: as §8, §2, §9, §10

Test [9] relates to PIK3CA-mutated cervical cancer cells. Description: CTG cell proliferation, cervical cancer cell lines. Type of test: cell-based. The note with it: across PIK3CA-mutated cervical cancer cell lines, 72 hours, Alpelisib: in two cell lines, read-out: half inhibitory concentration.
Text: (2) Reagents • 1) FBS (fetal bovine serum) (purchased from ExCell, product number: FND500); • 2) RPMI1640 medium (purchased from Hyclone, product number: SH30809.01); • 3) McCoy's 5A medium (purchased from Gibco, product number: 12330-031); • 4) MEM medium (purchased from Hyclone, product number: SH30024.01; • 5) MEM NEAA (purchased from Gibco, product number: 11140-050); • 6) Sodium pyruvate (purchased from Gibco). […]
(§11) Step 1: Cells in exponential growth phase were harvested, and viable cells were counted with a Vi-Cell XR cytometer. […]
as §4, §5

Test [10] has as its system HEC-1-A PIK3CA-mutated endometrial cancer cell line. The test is described as follows: CTG cell proliferation, HEC-1-A. The note with it: read-out: Absolute IC50. The class given is cell-based. The method, then: (§12) (2) Reagents • 1) FBS (fetal bovine serum) (purchased from ExCell, product number: FND500); • 2) McCoy's 5A medium (purchased from Gibco, product number: 12330-031); • 3) MEM medium (purchased from Hyclone, product number: SH30024.01). (3) Test Article and Positive Control Article • Test article: compound I; • Positive control article: Alpelisib, molecular weight: 441.47; solvent: DMSO; storage condition after dissolution: −20° C.; supplier: Shanghai TOPSCIENCE Biochemical Technology Co., Ltd., CAS number: 1217486-61-7; (4) The CTG Method was Used to Determine the Cell Proliferation IC50 of the Compound
as §11, §4, §5

Test [11] deals with HEC-1-B PIK3CA-mutated endometrial cancer cell line. Description: CTG cell proliferation, HEC-1-B. The class given is cell-based. Conditions: read-out: Absolute IC50. The method, then:
as §12, §2
Step 2: The initial concentration of administration of compound I and the control drug Alpelisib was 3 μM, serially diluted 3-fold, a total of 9 concentration gradients and a DMSO control, the final concentration of DMSO in each well was 0.1%, placed in a 37° C., 5% CO2 incubator for 72 hours.
as §9, §5

Where [12] appears, read: 20 mg/kg, vein, once a week for 3 weeks, vs Solvent 1.
Setting [13] is: 5 mg/kg, oral, once a day for 20 days, vs Solvent 2.

`CN(C)C1CCN(C(=O)c2ccc(NC(=O)Nc3ccc(-c4nc(N5CCOCC5)nc(N5CCOCC5)n4)cc3)cc2)CC1` [PF05212384, reference compound]: the “Tumor volume (Day 20)” value in test [1] (20 mg/kg, vein, once a week for 3 weeks) amounted to 49 ± 6 mm^3. In test [1] (setting [12]), the T/C was 15% and the TGI turned out to be 134%.
As for `N.N.[Cl][Pt][Cl]` [Cisplatin], the pIC50 in test [2] was 4.44; in test [3], under 4.00; in test [4], 5.55; in test [5] it was 4.79; in test [6], 5.45; in [7], 5.76. In [8], the pIC50 is 5.42.
As to `Cc1nc(NC(=O)N2CCC[C@H]2C(N)=O)sc1-c1ccnc(C(C)(C)C(F)(F)F)c1` [Alpelisib], the pIC50 was 5.68 in test [4] (Homo sapiens); under 5.52 in test [5] (Homo sapiens); under 5.52 in test [6] (Homo sapiens); under 5.52 in test [9]; 5.61 in [10] (72 hours); under 5.70 in test [10] (Homo sapiens, 72 h). The pIC50 in test [11] (72 hours) is 5.62; in test [11] (Homo sapiens, HEC-1B, 72 h), under 5.70.
Turning to `CO[C@H]1C[C@@H]2CC[C@@H](C)[C@@](O)(O2)C(=O)C(=O)N2CCCC[C@H]2C(=O)O[C@H]([C@H](C)C[C@@H]2CC[C@@H](OCCO)[C@H](OC)C2)CC(=O)[C@H](C)/C=C(\C)[C@@H](O)[C@@H](OC)C(=O)[C@H](C)C[C@H](C)/C=C/C=C/C=C/1C` [Everolimus, reference compound], the “Tumor volume (Day 20)” value in [1] (5 mg/kg, oral, once a day for 20 days) was found to be 82 ± 17 mm^3. In test [1] (setting [13]), the T/C was 19% and the TGI amounted to 113%.

Usually T/C stands for the result in the treated group divided by that in the control group, in per cent.
